Source: ChEMBL document CHEMBL1128593, “Chemistry and antimicrobial activity of caryoynencins analogs” (1995)
≈ marks a conversion by molar mass, not a printed value.

Columns and labels:
Escherichia coli [1] = assay: Antimicrobial activity of the Compound was tested for minimum inhibitory concentration against Escherichia coli NIHJ; assay type: functional
Shigella flexneri [2] = assay: Antimicrobial activity of the Compound was tested for minimum inhibitory concentration against Shigella flexneriII D642; assay type: functional
[3] = tested on: Trichophyton interdigitale; assay: Antimicrobial activity of the Compound was tested for minimum inhibitory concentration against Trichophyton interdigitale; assay type: functional
Pseudomonas aeruginosa [4] = assay: Antimicrobial activity of the Compound was tested for minimum inhibitory concentration against Pseudomonas aeruginosa 1001; assay type: functional
Trichophyton rubrum [5] = assay: Antimicrobial activity of the Compound was tested for minimum inhibitory concentration against Trichophyton rubrum; assay type: functional
Candida albicans [6] = assay: Antimicrobial activity of the Compound was tested for minimum inhibitory concentration against Candida albicans; assay type: functional
Serratia marcescens = assay: Antimicrobial activity of the Compound was tested for minimum inhibitory concentration against Serratia marcescens 1184; assay type: functional
Staphylococcus aureus [7] = assay: Antimicrobial activity of the Compound was tested for minimum inhibitory concentration against Staphylococcus aureus 535 (MRSA); assay type: functional
Bacillus subtilis = assay: Antimicrobial activity of the Compound was tested for minimum inhibitory concentration against Bacillus subtilis ATCC 6633; assay type: functional
Klebsiella pneumoniae [8] = assay: Antimicrobial activity of the Compound was tested for minimum inhibitory concentration against Klebsiella pneumoniae 806; assay type: functional
Staphylococcus aureus [9] = assay: Antimicrobial activity of the Compound was tested for minimum inhibitory concentration against Staphylococcus aureus 209P; assay type: functional
Salmonella enteritidis = assay: Antimicrobial activity of the Compound was tested for minimum inhibitory concentration against Salmonella enteritidis; assay type: functional, Salmonella enterica subsp. enterica serovar Enteritidis; conditions: Salmonella enterica
Enterococcus faecalis = assay: Antimicrobial activity of the Compound was tested for minimum inhibitory concentration against Enterococcus faecalis 681; assay type: functional
Pseudomonas aeruginosa [10] = assay: Antimicrobial activity of the Compound was tested for minimum inhibitory concentration against Pseudomonas aeruginosa N07; assay type: functional
Proteus vulgaris = assay: Antimicrobial activity of the Compound was tested for minimum inhibitory concentration against Proteus vulgaris 1420; assay type: functional
Staphylococcus aureus [11] = assay: Antimicrobial activity of the Compound was tested for minimum inhibitory concentration against Staphylococcus aureus 56R; assay type: functional
Klebsiella pneumoniae [12] = assay: Antimicrobial activity of the Compound was tested for minimum inhibitory concentration against Klebsiella pneumoniae 846(R); assay type: functional
Trichophyton benhamiae [13] = assay: Antimicrobial activity of the Compound was tested for minimum inhibitory concentration against Trichophyton mentagrophytes; assay type: functional, Arthroderma benhamiae
Enterobacter cloacae = assay: Antimicrobial activity of the Compound was tested for minimum inhibitory concentration against Enterobacter cloacae 963; assay type: functional
Escherichia coli [14] = assay: Antimicrobial activity of the Compound was tested for minimum inhibitory concentration against Escherichia coli 609; assay type: functional
Trichophyton benhamiae [15] = assay: Antimicrobial activity of the Compound was tested for minimum inhibitory concentration against Trichophyton mentagrophytes SC; assay type: functional, Arthroderma benhamiae
Trichophyton rubrum [16] = assay: Antimicrobial activity of the Compound was tested for minimum inhibitory concentration against Trichophyton rubrum SC; assay type: functional
Candida albicans [17] = assay: Antimicrobial activity of the Compound was tested for minimum inhibitory concentration against Candida albicans SC; assay type: functional
Mucor mucedo = assay: Antimicrobial activity of the Compound was tested for minimum inhibitory concentration against Mucor mucedo 14358; assay type: functional
Aspergillus fumigatus = assay: Antimicrobial activity of the Compound was tested for minimum inhibitory concentration against Aspergillus fumigatus 10569; assay type: functional
Nannizzia gypsea = assay: Antimicrobial activity of the Compound was tested for minimum inhibitory concentration against Microsporum gypseum 11268; assay type: functional
Cryptococcus neoformans = assay: Antimicrobial activity of the Compound was tested for minimum inhibitory concentration against Cryptococcus neoformans 58063; assay type: functional
Shigella flexneri [18] = assay: Antimicrobial activity of the Compound was tested for minimum inhibitory concentration against Shigella flexneri IID642; assay type: functional

SMILES	MIC (Escherichia coli [1])	MIC (Shigella flexneri [2])	MIC [3]	MIC (Pseudomonas aeruginosa [4])	MIC (Trichophyton rubrum [5])	MIC (Candida albicans [6])	MIC (Serratia marcescens)	MIC (Staphylococcus aureus [7])	MIC (Bacillus subtilis)	MIC (Klebsiella pneumoniae [8])	MIC (Staphylococcus aureus [9])	MIC (Salmonella enteritidis)	MIC (Enterococcus faecalis)	MIC (Pseudomonas aeruginosa [10])	MIC (Proteus vulgaris)	MIC (Staphylococcus aureus [11])	MIC (Klebsiella pneumoniae [12])	MIC (Trichophyton benhamiae [13])	MIC (Enterobacter cloacae)	MIC (Escherichia coli [14])	further results
C#CC#CC#CC#C/C=C/C=C/[C@@H](C)O	0.8 µg/mL (≈ 4.12 µM)	0.4 µg/mL (≈ 2.06 µM)	0.2 µg/mL (≈ 1.03 µM)	> 12.5 µg/mL	0.2 µg/mL (≈ 1.03 µM)	0.8 µg/mL (≈ 4.12 µM)	0.8 µg/mL (≈ 4.12 µM)	0.1 µg/mL (≈ 0.515 µM)	0.8 µg/mL (≈ 4.12 µM)	3.1 µg/mL (≈ 16 µM)	0.2 µg/mL (≈ 1.03 µM)	0.8 µg/mL (≈ 4.12 µM)	3.1 µg/mL (≈ 16 µM)	> 12.5 µg/mL	0.8 µg/mL (≈ 4.12 µM)	0.2 µg/mL (≈ 1.03 µM)	0.8 µg/mL (≈ 4.12 µM)	0.2 µg/mL (≈ 1.03 µM)	> 12.5 µg/mL	1.5 µg/mL (≈ 7.72 µM)	
C#CC#CC#C/C=C/C=C/C(C)O (configuration not stated)	25 µg/mL (≈ 147 µM)		0.8 µg/mL (≈ 4.7 µM)	> 50 µg/mL	0.4 µg/mL (≈ 2.35 µM)	1.5 µg/mL (≈ 8.81 µM)	> 50 µg/mL	0.8 µg/mL (≈ 4.7 µM)	12.5 µg/mL (≈ 73.4 µM)	> 50 µg/mL	0.8 µg/mL (≈ 4.7 µM)	25 µg/mL (≈ 147 µM)	12.5 µg/mL (≈ 73.4 µM)	> 50 µg/mL	12.5 µg/mL (≈ 73.4 µM)	0.8 µg/mL (≈ 4.7 µM)	12.5 µg/mL (≈ 73.4 µM)	0.8 µg/mL (≈ 4.7 µM)	> 50 µg/mL	25 µg/mL (≈ 147 µM)	MIC (Trichophyton benhamiae [15]): 0.4 µg/mL (≈ 2.35 µM); MIC (Trichophyton rubrum [16]): 0.4 µg/mL (≈ 2.35 µM); MIC (Candida albicans [17]): 1.5 µg/mL (≈ 8.81 µM); MIC (Mucor mucedo): 6.2 µg/mL (≈ 36.4 µM); MIC (Aspergillus fumigatus): 6.2 µg/mL (≈ 36.4 µM); MIC (Nannizzia gypsea): 0.8 µg/mL (≈ 4.7 µM); MIC (Cryptococcus neoformans): 1.5 µg/mL (≈ 8.81 µM); MIC (Shigella flexneri [18]): 6.2 µg/mL (≈ 36.4 µM)
C#CC#CC#CC#CC(O)/C=C/C=C/C (configuration not stated)	> 25 µg/mL	0.8 µg/mL (≈ 4.12 µM)	< 0.1 µg/mL	> 25 µg/mL	< 0.1 µg/mL	3.1 µg/mL (≈ 16 µM)	> 25 µg/mL	0.2 µg/mL (≈ 1.03 µM)	0.4 µg/mL (≈ 2.06 µM)	> 25 µg/mL	0.2 µg/mL (≈ 1.03 µM)	> 25 µg/mL	3.1 µg/mL (≈ 16 µM)	> 25 µg/mL	0.8 µg/mL (≈ 4.12 µM)	0.2 µg/mL (≈ 1.03 µM)	> 25 µg/mL	< 0.1 µg/mL	> 25 µg/mL	> 25 µg/mL	MIC (Trichophyton benhamiae [15]): < 0.02 µg/mL; MIC (Trichophyton rubrum [16]): < 0.02 µg/mL; MIC (Candida albicans [17]): 3.1 µg/mL (≈ 16 µM); MIC (Mucor mucedo): 0.2 µg/mL (≈ 1.03 µM); MIC (Aspergillus fumigatus): 1.5 µg/mL (≈ 7.72 µM); MIC (Nannizzia gypsea): 0.4 µg/mL (≈ 2.06 µM); MIC (Cryptococcus neoformans): 0.8 µg/mL (≈ 4.12 µM)
C#CC#CC#CC#C/C=C/C=C/C(C)O (racemic)	0.8 µg/mL (≈ 4.12 µM)	0.8 µg/mL (≈ 4.12 µM)	0.8 µg/mL (≈ 4.12 µM)	> 25 µg/mL	0.2 µg/mL (≈ 1.03 µM)	1.5 µg/mL (≈ 7.72 µM)	0.8 µg/mL (≈ 4.12 µM)	0.2 µg/mL (≈ 1.03 µM)	0.8 µg/mL (≈ 4.12 µM)	1.5 µg/mL (≈ 7.72 µM)	0.2 µg/mL (≈ 1.03 µM)	0.8 µg/mL (≈ 4.12 µM)	3.1 µg/mL (≈ 16 µM)	> 25 µg/mL	0.8 µg/mL (≈ 4.12 µM)	0.2 µg/mL (≈ 1.03 µM)	0.8 µg/mL (≈ 4.12 µM)		> 25 µg/mL	0.8 µg/mL (≈ 4.12 µM)	
C#CC#CC#CC#C/C=C/C=C/[C@H](C)O	1.5 µg/mL (≈ 7.72 µM)	0.8 µg/mL (≈ 4.12 µM)	0.4 µg/mL (≈ 2.06 µM)	> 25 µg/mL	0.2 µg/mL (≈ 1.03 µM)	1.5 µg/mL (≈ 7.72 µM)	1.5 µg/mL (≈ 7.72 µM)	0.2 µg/mL (≈ 1.03 µM)	0.8 µg/mL (≈ 4.12 µM)	> 25 µg/mL	0.2 µg/mL (≈ 1.03 µM)	3.1 µg/mL (≈ 16 µM)	6.2 µg/mL (≈ 31.9 µM)	> 25 µg/mL	1.5 µg/mL (≈ 7.72 µM)	0.2 µg/mL (≈ 1.03 µM)	3.1 µg/mL (≈ 16 µM)	0.4 µg/mL (≈ 2.06 µM)	> 25 µg/mL	3.1 µg/mL (≈ 16 µM)	
C#CC#CC#CC#CC1(O)CCCCC1	25 µg/mL (≈ 127 µM)	6.2 µg/mL (≈ 31.6 µM)	1.5 µg/mL (≈ 7.64 µM)	> 25 µg/mL	0.8 µg/mL (≈ 4.08 µM)	6.2 µg/mL (≈ 31.6 µM)	> 25 µg/mL	0.8 µg/mL (≈ 4.08 µM)	6.2 µg/mL (≈ 31.6 µM)	> 25 µg/mL	1.5 µg/mL (≈ 7.64 µM)	25 µg/mL (≈ 127 µM)	12.5 µg/mL (≈ 63.7 µM)	> 25 µg/mL	3.1 µg/mL (≈ 15.8 µM)	1.5 µg/mL (≈ 7.64 µM)	12.5 µg/mL (≈ 63.7 µM)		> 25 µg/mL	> 25 µg/mL	
